Reference: patent EP4745135A1 (Gluetacs Therapeutics (Shanghai) Co., Ltd., priority 2023, dated 2025)

How the values were obtained:
CK1α = target: T1, CK1α (Homo sapiens, UniProt P48729+Q96SW2); test: Western blot, degradation of substrate protein in hPBMCs; type: cell-based; conditions: Western blot, 24 hours of compound treatment, compounds tested at 50 nM and 500 nM (concentration for the table not stated)
T1 construct: effects of the compounds of the present disclosure on the expression of target proteins in cells; endogenous in cells; host or cells: human PBMCs (Milecell Biotechnologies)
T1 sequence (P48729 whole entry): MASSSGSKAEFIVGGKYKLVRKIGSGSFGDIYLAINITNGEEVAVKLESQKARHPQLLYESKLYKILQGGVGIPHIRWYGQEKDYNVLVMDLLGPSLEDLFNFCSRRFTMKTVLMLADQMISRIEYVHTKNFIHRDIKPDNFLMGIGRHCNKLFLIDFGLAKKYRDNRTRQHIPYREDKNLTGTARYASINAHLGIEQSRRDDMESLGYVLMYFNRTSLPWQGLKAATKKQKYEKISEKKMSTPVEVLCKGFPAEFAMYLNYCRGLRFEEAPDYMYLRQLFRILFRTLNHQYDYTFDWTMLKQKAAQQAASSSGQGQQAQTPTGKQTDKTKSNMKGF
T1 sequence (Q96SW2 whole entry): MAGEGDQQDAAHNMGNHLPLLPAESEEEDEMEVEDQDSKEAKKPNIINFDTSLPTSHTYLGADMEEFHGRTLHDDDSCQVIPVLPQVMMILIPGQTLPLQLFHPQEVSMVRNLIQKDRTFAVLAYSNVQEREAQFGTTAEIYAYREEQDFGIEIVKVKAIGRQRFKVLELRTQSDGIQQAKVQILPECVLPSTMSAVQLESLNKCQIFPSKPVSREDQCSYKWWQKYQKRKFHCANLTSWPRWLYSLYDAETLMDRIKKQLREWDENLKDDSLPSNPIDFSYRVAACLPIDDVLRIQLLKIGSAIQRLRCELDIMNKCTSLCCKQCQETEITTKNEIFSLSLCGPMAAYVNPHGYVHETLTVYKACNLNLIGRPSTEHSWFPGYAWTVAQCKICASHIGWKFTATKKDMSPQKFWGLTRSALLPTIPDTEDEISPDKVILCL
T1 sequence (Q16531 whole entry partner): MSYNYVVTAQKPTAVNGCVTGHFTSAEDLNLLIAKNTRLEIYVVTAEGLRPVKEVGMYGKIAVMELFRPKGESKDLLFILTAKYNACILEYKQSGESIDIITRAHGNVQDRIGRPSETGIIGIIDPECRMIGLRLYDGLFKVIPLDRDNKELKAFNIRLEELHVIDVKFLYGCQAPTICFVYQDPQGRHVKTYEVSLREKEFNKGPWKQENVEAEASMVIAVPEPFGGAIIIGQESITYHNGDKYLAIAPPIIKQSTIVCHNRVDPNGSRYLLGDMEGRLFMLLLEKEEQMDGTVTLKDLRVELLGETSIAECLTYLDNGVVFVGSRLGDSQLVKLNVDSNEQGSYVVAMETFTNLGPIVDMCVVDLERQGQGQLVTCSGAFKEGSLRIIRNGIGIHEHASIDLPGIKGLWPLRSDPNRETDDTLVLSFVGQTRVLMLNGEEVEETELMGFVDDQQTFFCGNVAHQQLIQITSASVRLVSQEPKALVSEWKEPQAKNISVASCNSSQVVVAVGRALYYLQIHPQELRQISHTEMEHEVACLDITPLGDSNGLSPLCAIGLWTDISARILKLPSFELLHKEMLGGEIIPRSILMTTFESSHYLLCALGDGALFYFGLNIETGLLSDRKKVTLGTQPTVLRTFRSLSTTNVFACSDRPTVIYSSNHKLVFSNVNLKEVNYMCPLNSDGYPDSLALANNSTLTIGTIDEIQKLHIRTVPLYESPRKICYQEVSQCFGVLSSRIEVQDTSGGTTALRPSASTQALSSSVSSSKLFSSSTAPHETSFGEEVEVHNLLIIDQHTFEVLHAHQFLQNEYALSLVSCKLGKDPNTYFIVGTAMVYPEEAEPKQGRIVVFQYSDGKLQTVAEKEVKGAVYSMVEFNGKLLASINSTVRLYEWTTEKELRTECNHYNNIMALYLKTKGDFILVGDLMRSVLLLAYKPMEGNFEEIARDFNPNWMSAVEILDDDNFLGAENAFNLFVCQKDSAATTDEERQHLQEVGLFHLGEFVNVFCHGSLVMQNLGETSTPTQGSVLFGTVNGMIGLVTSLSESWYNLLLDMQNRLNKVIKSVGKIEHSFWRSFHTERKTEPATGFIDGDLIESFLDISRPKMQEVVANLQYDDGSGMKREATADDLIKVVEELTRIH

IKZF1 = target: T2, IKZF1 (Homo sapiens, UniProt Q13422+Q96SW2); test: as above; type: cell-based; conditions: Western blot, 24 hours of compound treatment, compounds tested at 50 nM and 500 nM (concentration for the table not stated)
T2 construct: effects of the compounds of the present disclosure on the expression of target proteins in cells; endogenous in cells; host or cells: human PBMCs (Milecell Biotechnologies)
T2 sequence (Q13422 whole entry): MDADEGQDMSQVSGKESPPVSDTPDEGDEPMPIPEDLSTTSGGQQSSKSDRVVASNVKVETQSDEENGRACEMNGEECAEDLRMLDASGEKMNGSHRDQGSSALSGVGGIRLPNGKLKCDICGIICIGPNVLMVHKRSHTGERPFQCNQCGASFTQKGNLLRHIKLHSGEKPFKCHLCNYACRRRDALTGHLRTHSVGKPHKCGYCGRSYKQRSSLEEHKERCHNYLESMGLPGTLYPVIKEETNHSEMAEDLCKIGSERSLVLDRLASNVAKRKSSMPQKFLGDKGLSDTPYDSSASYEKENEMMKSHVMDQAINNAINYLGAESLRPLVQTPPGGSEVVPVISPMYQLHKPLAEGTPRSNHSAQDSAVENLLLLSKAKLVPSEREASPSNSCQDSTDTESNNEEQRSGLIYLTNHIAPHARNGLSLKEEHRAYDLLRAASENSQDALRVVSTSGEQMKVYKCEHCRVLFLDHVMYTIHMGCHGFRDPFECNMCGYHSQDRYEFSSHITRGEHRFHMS
T2 sequence (Q96SW2 whole entry): as the sequence (Q96SW2 whole entry) above
T2 sequence (Q16531 whole entry partner): as the sequence (Q16531 whole entry partner) above

IKZF2 = target: T3, IKZF2 (Homo sapiens, UniProt Q96SW2+Q9UKS7); test: as above; type: cell-based; conditions: Western blot, 24 hours of compound treatment, compounds tested at 50 nM and 500 nM (concentration for the table not stated)
T3 construct: effects of the compounds of the present disclosure on the expression of target proteins in cells; endogenous in cells; host or cells: human PBMCs (Milecell Biotechnologies)
T3 sequence (Q9UKS7 whole entry): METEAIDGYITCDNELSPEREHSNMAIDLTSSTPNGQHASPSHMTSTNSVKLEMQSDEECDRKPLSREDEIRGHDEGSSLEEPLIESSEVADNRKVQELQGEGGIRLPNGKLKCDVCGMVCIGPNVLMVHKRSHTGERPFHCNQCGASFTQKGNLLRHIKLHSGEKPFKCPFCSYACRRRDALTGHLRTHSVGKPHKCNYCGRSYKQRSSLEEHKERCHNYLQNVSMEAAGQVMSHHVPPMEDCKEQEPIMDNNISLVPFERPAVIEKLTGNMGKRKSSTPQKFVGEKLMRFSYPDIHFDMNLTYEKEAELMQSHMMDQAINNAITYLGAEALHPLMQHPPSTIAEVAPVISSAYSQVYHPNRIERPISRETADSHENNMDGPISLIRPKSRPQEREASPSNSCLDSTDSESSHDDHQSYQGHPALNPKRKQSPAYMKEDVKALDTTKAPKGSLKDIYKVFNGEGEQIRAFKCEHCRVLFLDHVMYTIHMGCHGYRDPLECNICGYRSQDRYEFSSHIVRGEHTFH
T3 sequence (Q96SW2 whole entry): as the sequence (Q96SW2 whole entry) above
T3 sequence (Q16531 whole entry partner): as the sequence (Q16531 whole entry partner) above

IKZF3 = target: T4, IKZF3 (Homo sapiens, UniProt Q96SW2+Q9UKT9); test: as above; type: cell-based; conditions: Western blot, 24 hours of compound treatment, compounds tested at 50 nM and 500 nM (concentration for the table not stated)
T4 construct: effects of the compounds of the present disclosure on the expression of target proteins in cells; endogenous in cells; host or cells: human PBMCs (Milecell Biotechnologies)
T4 sequence (Q9UKT9 whole entry): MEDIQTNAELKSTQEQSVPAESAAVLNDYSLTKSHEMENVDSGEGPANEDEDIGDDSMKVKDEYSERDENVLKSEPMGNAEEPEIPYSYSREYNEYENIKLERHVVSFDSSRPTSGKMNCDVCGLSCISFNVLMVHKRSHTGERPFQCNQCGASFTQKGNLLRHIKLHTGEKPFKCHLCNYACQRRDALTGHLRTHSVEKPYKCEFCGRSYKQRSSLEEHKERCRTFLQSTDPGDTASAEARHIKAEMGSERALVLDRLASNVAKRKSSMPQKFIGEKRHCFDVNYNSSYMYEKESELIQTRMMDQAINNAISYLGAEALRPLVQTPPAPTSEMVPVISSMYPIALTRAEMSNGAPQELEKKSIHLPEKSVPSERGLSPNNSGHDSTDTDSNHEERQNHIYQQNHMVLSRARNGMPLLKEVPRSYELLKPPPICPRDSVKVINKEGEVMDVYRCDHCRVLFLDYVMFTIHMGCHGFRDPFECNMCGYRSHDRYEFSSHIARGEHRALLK
T4 sequence (Q96SW2 whole entry): as the sequence (Q96SW2 whole entry) above
T4 sequence (Q16531 whole entry partner): as the sequence (Q16531 whole entry partner) above

WEE1 = target: T5, WEE1 (Homo sapiens, UniProt P30291+Q96SW2); test: as above; type: cell-based; conditions: Western blot, 24 hours of compound treatment, compounds tested at 50 nM and 500 nM (concentration for the table not stated)
T5 construct: effects of the compounds of the present disclosure on the expression of target proteins in cells; endogenous in cells; host or cells: human PBMCs (Milecell Biotechnologies)
T5 sequence (P30291 whole entry): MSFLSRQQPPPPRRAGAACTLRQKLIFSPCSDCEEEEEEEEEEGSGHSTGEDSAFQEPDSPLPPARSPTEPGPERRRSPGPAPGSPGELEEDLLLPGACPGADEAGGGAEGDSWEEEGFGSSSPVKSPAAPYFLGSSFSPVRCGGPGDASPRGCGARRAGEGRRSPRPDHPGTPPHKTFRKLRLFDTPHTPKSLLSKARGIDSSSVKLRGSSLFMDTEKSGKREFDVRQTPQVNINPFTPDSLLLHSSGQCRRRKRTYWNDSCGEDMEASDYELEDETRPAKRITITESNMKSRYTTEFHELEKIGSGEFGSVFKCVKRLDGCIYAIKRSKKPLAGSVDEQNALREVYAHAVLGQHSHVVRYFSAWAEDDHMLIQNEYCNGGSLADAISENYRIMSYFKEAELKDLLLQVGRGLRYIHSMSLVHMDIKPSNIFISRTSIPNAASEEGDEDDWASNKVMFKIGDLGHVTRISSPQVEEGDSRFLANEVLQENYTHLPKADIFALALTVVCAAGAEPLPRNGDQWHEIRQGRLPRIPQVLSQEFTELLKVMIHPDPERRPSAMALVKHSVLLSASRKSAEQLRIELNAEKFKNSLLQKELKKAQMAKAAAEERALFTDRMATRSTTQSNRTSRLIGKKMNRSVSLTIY
T5 sequence (Q96SW2 whole entry): as the sequence (Q96SW2 whole entry) above
T5 sequence (Q16531 whole entry partner): as the sequence (Q16531 whole entry partner) above

GSPT1 = test: as above; type: cell-based, Human; conditions: Western blot, 24 hours of compound treatment, compounds tested at 50 nM and 500 nM (concentration for the table not stated)
[1] = target: T6, human Cereblon WT GST-tagged protein (Homo sapiens, UniProt Q96SW2); test: CRBN-binding affinity, HTRF (CEREBLON BINDING kit); conditions: for inhibition at 0.5 µM: read-out: Inhibition Rate at 0.5 µM (%); for inhibition at 2 µM: read-out: Inhibition Rate at 2 µM (%)
T6 construct: purchased CISBIO 64BDCRBNPEH
T6 sequence (Q96SW2 whole entry): as the sequence (Q96SW2 whole entry) above

| Compound | inhibition at 0.5 µM [1] [%] | inhibition at 2 µM [1] [%] | CK1α substrate protein remaining % (CK1α) | IKZF 1 substrate protein remaining % (IKZF1) | IKZF2 substrate protein remaining % (IKZF2) | IKZF3 substrate protein remaining % (IKZF3) | Wee1 substrate protein remaining % (WEE1) | GSPT1 substrate protein remaining % (GSPT1) |
| --- | --- | --- | --- | --- | --- | --- | --- | --- |
| O=C1CCC(N2Cc3c(CN4CCN(c5c(F)cncc5Cl)CC4)cccc3C2=S)C(=O)N1 (stereo not shown) [GT-08802, 3-(4-((4-(3-chloro-5-fluoropyridin-4-yl)piperazin-1-yl)methyl)-1-thioxoisoindolin-2-yl)piperidine-2,6-dione] | 53 to 60 | 80 to 100 | B (80%< substrate protein remaining %≤ 100%) | B (80%< substrate protein remaining %≤ 100%) | B (80%< substrate protein remaining %≤ 100%) | B (80%< substrate protein remaining %≤ 100%) | A (0% ≤ substrate protein remaining % ≤ 80%) | B (80%< substrate protein remaining %≤ 100%) |
| Cc1cc(N2CCN(Cc3cccc4c3CN(C3CCC(=O)NC3=O)C4=S)CC2)cc(C)n1 (stereo not shown) [GT-08806, 3-(4-((4-(2,6-dimethylpyridin-4-yl)piperazin-1-yl)methyl)-1-thioxoisoindolin-2-yl)piperidine-2,6-dione] | 53 to 60 | 80 to 100 | B (80%< substrate protein remaining %≤ 100%) | B (80%< substrate protein remaining %≤ 100%) | B (80%< substrate protein remaining %≤ 100%) | B (80%< substrate protein remaining %≤ 100%) | A (0% ≤ substrate protein remaining % ≤ 80%) | B (80%< substrate protein remaining %≤ 100%) |
| O=C1CCC(N2Cc3c(CN4CCN(c5ncncn5)CC4)cccc3C2=S)C(=O)N1 (stereo not shown) [GT-08808, 3-(4-((4-(1,3,5-triazin-2-yl)piperazin-1-yl)methyl)-1-thioxoisoindolin-2-yl)piperidine-2,6-dione] | 60 to 80 | 80 to 100 | B (80%< substrate protein remaining %≤ 100%) | B (80%< substrate protein remaining %≤ 100%) | B (80%< substrate protein remaining %≤ 100%) | B (80%< substrate protein remaining %≤ 100%) | A (0% ≤ substrate protein remaining % ≤ 80%) | B (80%< substrate protein remaining %≤ 100%) |
| O=C1CCC(N2Cc3c(CN4CCN(c5c(F)c(F)nc(F)c5F)CC4)cccc3C2=S)C(=O)N1 (stereo not shown) [GT-08809, 3-(4-((4-(perfluoropyridin-4-yl)piperazin-1-yl)methyl)-1-thioxoisoindolin-2-yl)piperidine-2,6-dione] | 53 to 60 | 80 to 100 | B (80%< substrate protein remaining %≤ 100%) | A (0% ≤ substrate protein remaining % ≤ 80%) | A (0% ≤ substrate protein remaining % ≤ 80%) | A (0% ≤ substrate protein remaining % ≤ 80%) | A (0% ≤ substrate protein remaining % ≤ 80%) | A (0% ≤ substrate protein remaining % ≤ 80%) |

Second part, led by results:

| inhibition at 0.5 µM [1] [%] | inhibition at 2 µM [1] [%] | Compound | CK1α substrate protein remaining % (CK1α) | IKZF 1 substrate protein remaining % (IKZF1) | IKZF2 substrate protein remaining % (IKZF2) | IKZF3 substrate protein remaining % (IKZF3) | Wee1 substrate protein remaining % (WEE1) | GSPT1 substrate protein remaining % (GSPT1) |
| --- | --- | --- | --- | --- | --- | --- | --- | --- |
| 60 to 80 | 80 to 100 | O=C1CCC(N2Cc3c(CN4CCN(c5nccc(Cl)c5F)CC4)cccc3C2=S)C(=O)N1 (stereo not shown) [GT-08803, 3-(4-((4-(4-chloro-3-fluoropyridin-2-yl)piperazin-1-yl)methyl)-1-thioxoisoindolin-2-yl)piperidine-2,6-dione] | B (80%< substrate protein remaining %≤ 100%) | B (80%< substrate protein remaining %≤ 100%) | B (80%< substrate protein remaining %≤ 100%) | B (80%< substrate protein remaining %≤ 100%) | A (0% ≤ substrate protein remaining % ≤ 80%) | B (80%< substrate protein remaining %≤ 100%) |
| 40 to 53 | 60 to 80 | O=C1CCC(N2Cc3c(CN4CCN(c5nccc(Cl)c5Br)CC4)cccc3C2=S)C(=O)N1 (stereo not shown) [GT-08804, 3-(4-((4-(3-bromo-4-chloropyridin-2-yl)piperazin-1-yl)methyl)-1-thioxoisoindolin-2-yl)piperidine-2,6-dione] | B (80%< substrate protein remaining %≤ 100%) | B (80%< substrate protein remaining %≤ 100%) | B (80%< substrate protein remaining %≤ 100%) | B (80%< substrate protein remaining %≤ 100%) | A (0% ≤ substrate protein remaining % ≤ 80%) | B (80%< substrate protein remaining %≤ 100%) |
| 60 to 80 | 60 to 80 | O=C1CCC(N2Cc3c(CN4CCN(c5c(Cl)cncc5Cl)CC4)cccc3C2=S)C(=O)N1 (stereo not shown) [GT-08805, 3-(4-((4-(3,5-dichloropyridin-4-yl)piperazin-1-yl)methyl)-1-thioxoisoindolin-2-yl)piperidine-2,6-dione] | B (80%< substrate protein remaining %≤ 100%) | B (80%< substrate protein remaining %≤ 100%) | B (80%< substrate protein remaining %≤ 100%) | B (80%< substrate protein remaining %≤ 100%) | A (0% ≤ substrate protein remaining % ≤ 80%) | B (80%< substrate protein remaining %≤ 100%) |
| 60 to 80 | 80 to 100 | O=C1CCC(N2Cc3c(CN4CCN(c5cc(Cl)nnc5Cl)CC4)cccc3C2=S)C(=O)N1 (stereo not shown) [GT-08807, 3-(4-((4-(3,6-dichloropyridazin-4-yl)piperazin-1-yl)methyl)-1-thioxoisoindolin-2-yl)piperidine-2,6-dione] | B (80%< substrate protein remaining %≤ 100%) | B (80%< substrate protein remaining %≤ 100%) | B (80%< substrate protein remaining %≤ 100%) | B (80%< substrate protein remaining %≤ 100%) | A (0% ≤ substrate protein remaining % ≤ 80%) | B (80%< substrate protein remaining %≤ 100%) |
